5 compounds from ChEMBL document CHEMBL1125702 (J Med Chem, 1991) can be followed below.

Molecules are shown by their SMILES.

The test system of this data set is Cynomolgus monkey. As to the kind of experiment: Compound was evaluated for pseudo Hill coefficients (nH) in cynomolgus monkeys. The following applies: in vivo. Format: ADME, organism-based, Macaca fascicularis.
On to `COC(=O)C1C2CCC(C[C@@H]1c1ccc(F)cc1)N2` (stereo not given in full), for which the Hill coefficient is 0.64 nH.

In turn, `CCCN1C2CCC1C(C(=O)OC)[C@@H](c1ccc(F)cc1)C2` (stereo not given in full) returned a Hill coefficient of 0.7 nH.

Regarding `COC(=O)[C@H]1[C@@H](c2ccc(F)cc2)C[C@H]2CC[C@H]1N2C`, the Hill coefficient is given as 0.66 nH.

`C=CCN1C2CCC1C(C(=O)OC)[C@@H](c1ccc(F)cc1)C2` (stereo not given in full): the Hill coefficient was found to be 0.65 nH.

Compound `COC(=O)[C@H]1[C@@H](OC(=O)c2ccccc2)C[C@@H]2CC[C@H]1N2C` [COCAINE] returned a Hill coefficient of 0.54 nH.
